Test results as given in ChEMBL document CHEMBL1201862, “PubChem BioAssay data set” (2004).
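Tested at 5 concentrations; 48 h exposure; 96-well plates; endpoints linearly interpolated, else capped at highest concentration. GI50: concentration for 50% inhibition of growth.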 The source made the active and inactive calls. No stated cut-off is given here; in the data, active = GI50 up to about 1.1 µM and inactive = higher.

Tests used:
Test in all cases: NCI anticancer screen, dose series, 48 h
[1] = system: UO-31
[2] = system: CAKI-1
[3] = system: SW-620
[4] = system: RPMI-8226
[5] = system: RXF 393
[6] = system: MOLT-4
[7] = system: UACC-257
[8] = system: HOP-62
[9] = system: OVCAR-8
[10] = system: SN12C
[11] = system: HCT-116
[12] = system: TK-10
[13] = system: ACHN
[14] = system: U-251
[15] = system: M14
[16] = system: EKVX
[17] = system: HT-29
[18] = system: Malme-3M
[19] = system: SNB-19

Measured: GI50

CCCCc1ccc(C#CC#Cc2ccc(CCCC)s2)s1
inactive: [1] > 100 µM | [2] > 100 µM | [3] > 100 µM | [4] > 100 µM | [5] > 100 µM | [6] > 100 µM | [7] > 100 µM | [8] > 100 µM | [9] > 100 µM | [10] > 100 µM | [11] > 100 µM | [12] > 100 µM | [13] > 100 µM | [14] > 100 µM | [15] > 100 µM | [16] > 100 µM | [17] > 100 µM

CC(=O)NC(CCCCNC(=O)NCCCl)C(=O)NCc1ccccc1 (stereo unspecified)
inactive: [1] > 100 µM | [2] > 100 µM | [3] > 100 µM | [4] > 100 µM | [18] > 100 µM | [5] > 100 µM | [6] > 100 µM | [7] > 100 µM | [8] > 100 µM | [9] > 100 µM | [19] > 100 µM | [10] > 100 µM | [11] > 100 µM | [12] > 100 µM | [13] > 100 µM | [14] > 100 µM | [15] > 100 µM | [16] > 100 µM | [17] > 100 µM

COC(=O)c1cc(C(=O)OC)c(CC(=O)C(=O)NC2C3CC4CC(C3)CC2C4)nc1CC(=O)C(=O)NC1C2CC3CC(C2)CC1C3 (stereo unspecified)
inactive: [1] > 100 µM | [2] > 100 µM | [3] > 100 µM | [4] > 100 µM | [18] > 100 µM | [5] > 100 µM | [6] 37.3 µM | [7] > 100 µM | [8] > 100 µM | [9] > 100 µM | [19] > 100 µM | [10] > 100 µM | [11] > 100 µM | [12] > 100 µM | [13] > 100 µM | [14] > 100 µM | [15] > 100 µM | [16] > 100 µM | [17] > 100 µM

CC1OC(n2cnc3c(N)nc(Cl)nc32)C(C)(O)C1O (stereo unspecified)
inactive: [1] 16.7 µM | [2] > 25 µM | [3] > 25 µM | [4] > 25 µM | [18] > 25 µM | [5] > 25 µM | [6] > 25 µM | [7] > 25 µM | [8] > 25 µM | [9] 19.8 µM | [19] > 25 µM | [10] > 25 µM | [11] > 25 µM | [12] > 25 µM | [13] > 25 µM | [15] > 25 µM | [16] > 25 µM | [17] > 25 µM

[N-]=[N+]=Nc1nnc(CCCCc2nnc(N=[N+]=[N-])o2)o1
inactive: [1] > 100 µM | [3] > 100 µM | [18] > 100 µM | [5] > 100 µM | [6] > 100 µM | [7] > 100 µM | [8] > 100 µM | [9] > 100 µM | [19] > 100 µM | [10] > 100 µM | [11] > 100 µM | [12] > 100 µM | [13] > 100 µM | [14] > 100 µM | [15] > 100 µM | [16] > 100 µM | [17] > 100 µM

COC(=O)/C=C(C)/C=C/C1OC(C)OCC1O (stereo unspecified)
inactive: [1] > 100 µM | [2] > 100 µM | [3] > 100 µM | [4] > 100 µM | [18] > 100 µM | [6] > 100 µM | [7] > 100 µM | [8] > 100 µM | [9] > 100 µM | [19] > 100 µM | [10] > 100 µM | [12] > 100 µM | [13] > 100 µM | [14] > 100 µM | [15] > 100 µM | [16] > 100 µM | [17] > 100 µM

COC(=O)C(=O)C(C(=O)C(=O)Nc1cc([N+](=O)[O-])ccc1[N+](=O)[O-])c1nc2ccc(C(=O)c3ccccc3)cc2nc1O (stereo unspecified)
inactive: [1] 17.4 µM | [2] 19.3 µM | [3] 28.4 µM | [4] 20.1 µM | [18] 61.4 µM | [6] 18.1 µM | [7] 34.3 µM | [8] 44.5 µM | [9] 26.9 µM | [19] 50.4 µM | [10] 44.2 µM | [11] 40.6 µM | [13] 34.8 µM | [14] 33.4 µM | [15] 33.1 µM | [16] 39.3 µM | [17] 34 µM

Nc1nc2c(ncn2Cc2ccccc2CCO)c(=O)[nH]1
inactive: [1] > 100 µM | [2] > 100 µM | [3] > 100 µM | [4] > 100 µM | [18] > 100 µM | [5] > 100 µM | [6] > 100 µM | [8] > 100 µM | [9] > 100 µM | [19] > 100 µM | [10] > 100 µM | [12] > 100 µM | [13] > 100 µM | [14] > 100 µM | [15] > 100 µM | [16] > 100 µM | [17] > 100 µM

Oc1nc2cc(Cl)ccc2nc1/C(=N\Nc1ccccc1)C(O)c1ccc(Cl)c(Cl)c1 (stereo unspecified)
inactive: [1] > 100 µM | [3] > 100 µM | [4] > 100 µM | [18] > 100 µM | [5] > 100 µM | [6] > 100 µM | [7] > 100 µM | [8] > 100 µM | [9] > 100 µM | [19] > 100 µM | [10] 36.7 µM | [11] > 100 µM | [12] > 100 µM | [13] > 100 µM | [14] > 100 µM | [15] > 100 µM | [16] > 100 µM | [17] > 100 µM

Cc1csc2nc(-c3ccncc3)cn12
inactive: [1] > 100 µM | [2] > 100 µM | [3] > 21.1 µM | [4] > 45.1 µM | [18] > 100 µM | [6] > 100 µM | [7] > 100 µM | [8] > 100 µM | [9] > 100 µM | [19] > 100 µM | [10] > 100 µM | [11] > 42.2 µM | [12] > 100 µM | [13] > 100 µM | [14] > 46.9 µM | [15] > 68.2 µM | [16] > 59.7 µM | [17] > 100 µM

O=C1NC(c2ccc(O)cc2)C2CCC1C2 (stereo unspecified)
inactive: [1] > 100 µM | [2] > 100 µM | [3] > 100 µM | [4] > 100 µM | [18] > 100 µM | [6] > 100 µM | [7] > 100 µM | [8] > 100 µM | [9] > 100 µM | [19] > 100 µM | [10] > 100 µM | [11] > 100 µM | [12] > 100 µM | [13] > 100 µM | [14] > 100 µM | [15] > 100 µM | [16] > 100 µM | [17] > 100 µM

Nc1ncnc2c1sc(=S)n2-c1ccccc1
inactive: [1] 89.3 µM | [2] > 100 µM | [3] > 100 µM | [4] > 100 µM | [18] > 100 µM | [5] > 100 µM | [6] > 100 µM | [7] > 100 µM | [8] > 100 µM | [9] > 100 µM | [19] > 100 µM | [10] > 100 µM | [11] > 100 µM | [12] > 100 µM | [13] > 100 µM | [14] > 100 µM | [15] > 100 µM | [16] > 100 µM | [17] > 100 µM

CCN(CC)c1ccc(/N=N/c2ccc(-c3nc4cccn(C)c-4n3)cc2)cc1
inactive: [1] 17.1 µM | [2] 16.6 µM | [3] 7.36 µM | [4] 2.36 µM | [18] 12.1 µM | [5] 3.21 µM | [6] 2.23 µM | [7] 9.14 µM | [8] 10.4 µM | [9] 10.3 µM | [19] 15.6 µM | [10] 6.04 µM | [11] 3.61 µM | [12] 27.9 µM | [14] 3.92 µM | [15] 9.33 µM | [16] 18.5 µM | [17] 1.98 µM

Cc1ccc(SC(C)/C=C/NNC2=NN=C(c3ccccc3)C(c3ccccc3)N2)cc1 (stereo unspecified)
inactive: [1] 12.4 µM | [2] 13.5 µM | [3] 46.5 µM | [4] 27.9 µM | [18] 49.8 µM | [6] 13.4 µM | [7] 31.5 µM | [9] 31.7 µM | [10] 36.4 µM | [11] 39.6 µM | [12] 75.7 µM | [13] 29.6 µM | [15] 38 µM | [16] 44.8 µM | [17] 13.3 µM

COc1ccc(C2Oc3c(c(O)cc4c3[C@H](c3ccc(O)cc3O)[C@H](O)C(c3ccc(O)c(O)c3)O4)C[C@@H]2O)cc1O (stereo partly specified)
inactive: [1] > 100 µM | [2] > 100 µM | [3] > 100 µM | [4] > 100 µM | [18] > 100 µM | [5] > 100 µM | [6] > 100 µM | [7] > 100 µM | [8] > 100 µM | [9] > 100 µM | [19] > 100 µM | [10] > 100 µM | [11] > 100 µM | [12] > 100 µM | [13] > 100 µM | [14] > 100 µM | [15] > 100 µM | [16] > 100 µM | [17] > 100 µM
